Reference: US7160888B2, “[1,8]naphthyridin-2-ones and related compounds for the treatment of schizophrenia” (Warner Lambert Company LLC, priority 2003, dated 2007)

Target: D2 receptor (Homo sapiens, UniProt P14416)
Assay: [3H]Thymidine uptake assay for D2 intrinsic activity
Type: cell-based
Details: test compound 1 μM, 1 μM Quinpirole = 100% intrinsic activity

Chain of D2 receptor (P14416 whole entry): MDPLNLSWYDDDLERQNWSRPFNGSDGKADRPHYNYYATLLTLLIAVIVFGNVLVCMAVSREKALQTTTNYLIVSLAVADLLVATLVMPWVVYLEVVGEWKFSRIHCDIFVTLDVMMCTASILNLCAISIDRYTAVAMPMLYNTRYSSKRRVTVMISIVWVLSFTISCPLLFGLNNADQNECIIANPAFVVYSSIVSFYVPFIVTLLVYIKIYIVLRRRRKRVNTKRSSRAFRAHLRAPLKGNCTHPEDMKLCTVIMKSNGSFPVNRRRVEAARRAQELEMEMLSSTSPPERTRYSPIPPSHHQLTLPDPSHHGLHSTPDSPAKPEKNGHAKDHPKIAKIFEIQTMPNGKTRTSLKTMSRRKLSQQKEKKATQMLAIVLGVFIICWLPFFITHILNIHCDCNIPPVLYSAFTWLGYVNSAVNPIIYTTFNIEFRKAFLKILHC

Compound | Emax at 1 µM (Table 1) [%] | Emax at 1 µM (Table 2) [%]
O=c1ccc2ccc(OCCCCN3CCN(c4cccc(C5CC5)n4)CC3)nc2[nH]1 [Example B29, 7-{4-[4-(6-Cyclopropyl-pyridin-2-yl)-piperazin-1-yl]-butoxy}-1H-[1,8]naphthyridin-2-one] | 32 | 
O=C1CCc2ccc(OCCCCN3CCN(c4cccc5ccncc45)CC3)nc2N1 [Example A36′, 7-[4-(4-Isoquinolin-8-yl-piperazin-1-yl)-butoxy]-3,4-dihydro-1H-[1,8]naphthyridin-2-one] |  | 62
CC1C=Cc2cccc(N3CCN(CCCCOc4ccc5ccc(=O)[nH]c5n4)CC3)c2O1 (stereo not shown) [Example B4′, 7-{4-[4-(2-Methyl-2H-chromen-8-yl)-piperazin-1-yl]-butoxy}-1H-[1,8]naphthyridin-2-one] |  | 28
COc1ccc2cccc(N3CCN(CCCCOc4nc(C)c5ccc(=O)[nH]c5n4)CC3)c2c1 [Example H11, 2-{4-[4-(7-Methoxy-naphthalen-1-yl)-piperazin-1-yl]-butoxy}-4-methyl-8H-pyrido[2,3-d]pyrimidin-7-one] | 23 | 
CC(=O)c1ccc2ccccc2c1N1CCN(CCCCOc2ccc3c(n2)NC(=O)CC3)CC1 [Example A82, 7-{4-[4-(2-Acetyl-naphthalen-1-yl)-piperazin-1-yl]-butoxy}-3,4-dihydro-1H-[1,8]naphthyridin-2-one] | 27 | 
CC1(C)C=Cc2cccc(N3CCN(CCCCOc4ccc5c(n4)NC(=O)CC5)CC3)c2O1 [Example A5′, 7-{4-[4-(2,2-Dimethyl-2H-chromen-8-yl)-piperazin-1-yl]-butoxy}-3,4-dihydro-1H-[1,8]naphthyridin-2-one] |  | 31
N#Cc1ccc2cccc(N3CCN(CCCCOc4ccc5c(n4)NC(=O)NC5)CC3)c2c1 [Example F6, 8-{4-[4-(2-Oxo-1,2,3,4-tetrahydro-pyrido[2,3-d]pyrimidin-7-yloxy)-butyl]-piperazin-1-yl}-naphthalene-2-carbonitrile] | 37 | 
O=c1ccc2cnc(OCCCCN3CCN(c4cccc5ccccc45)CC3)nc2[nH]1 [Example H4, 2-[4-(4-Naphthalen-1-yl-piperazin-1-yl)-butoxy]-8H-pyrido[2,3-d]pyrimidin-7-one] | 38 | 
O=c1ccc2cnc(OCCCCN3CCN(c4cccc5c4OCCO5)CC3)cc2[nH]1 [Example H7′, 7-{4-[4-(2,3-Dihydro-benzo[1,4]dioxin-5-yl)-piperazin-1-yl]-butoxy}-1H-[1,6]naphthyridin-2-one] |  | 17
CC(C)Oc1ccccc1N1CCN(CCCCOc2ccc3ccc(=O)[nH]c3n2)CC1 [Example B10, 7-{4-[4-(2-Isopropoxy-phenyl)-piperazin-1-yl]-butoxy}-1H-[1,8]naphthyridin-2-one] | 34 | 
O=c1ccc2ccc(OCCCCN3CCN(c4cccc5[nH]ccc45)CC3)nc2[nH]1 [Example B24′, 7-{4-[4-(1H-Indol-4-yl)-piperazin-1-yl]-butoxy}-1H-[1,8]naphthyridin-2-one] |  | 42
O=C1CCc2cnc(OCCCCN3CCN(c4cccc5c4OCCO5)CC3)cc2N1 [Example H5′, 7-{4-[4-(2,3-Dihydro-benzo[1,4]dioxin-5-yl)-piperazin-1-yl]-butoxy}-3,4-dihydro-1H-[1,6]naphthyridin-2-one] |  | 14
O=c1ccc2cnc(NCCCCN3CCN(c4cccc(Cl)c4Cl)CC3)cc2[nH]1 [Example I18, 7-{4-[4-(2,3-Dichloro-phenyl)-piperazin-1-yl]-butylamino}-1H-[1,6]naphthyridin-2-one] | 54 | 
O=C1CCc2ccc(OCCCCN3CCN(c4cccc5nccnc45)CC3)nc2N1 [Example A44′, 7-[4-(4-Quinoxalin-5-yl-piperazin-1-yl)-butoxy]-3,4-dihydro-1H-[1,8]naphthyridin-2-one] |  | 29
COC(=O)c1c(OCCCCN2CCN(c3cccc4ccccc34)CC2)ncc2c1NC(=O)CC2 [Example I11, 7-[4-(4-Naphthalen-1-yl-piperazin-1-yl)-butoxy]-2-oxo-1,2,3,4-tetrahydro-[1,6]naphthyridine-8-carboxylic acid methyl ester] | 19 | 
O=c1ccc2ccc(OCCCCN3CCN(c4ccccc4C(F)(F)F)CC3)nc2[nH]1 [Example B16, 7-{4-[4-(2-Trifluoromethyl-phenyl)-piperazin-1-yl]-butoxy}-1H-[1,8]naphthyridin-2-one] | 41 | 
O=c1ccc2cnc(OCCCCN3CCN(c4cccc5c4OCCC5)CC3)nc2[nH]1 [Example G2′, 2-[4-(4-Chroman-8-yl-piperazin-1-yl)-butoxy]-8H-pyrido[2,3-d]pyrimidin-7-one] |  | 21
CC(=O)c1cccc(N2CCN(CCCCOc3ccc4c(n3)NC(=O)CC4)CC2)c1 [Example A33, 7-{4-[4-(3-Acetyl-phenyl)-piperazin-1-yl]-butoxy}-3,4-dihydro-1H-[1,8]naphthyridin-2-one] | 31 | 
CC(C)Oc1ccccc1N1CCN(CCCCOc2ccc3c(n2)NC(=O)CC3(C)C)CC1 [Example D25, 7-{4-[4-(2-Isopropoxy-phenyl)-piperazin-1-yl]-butoxy}-4,4-dimethyl-3,4-dihydro-1H-[1,8]naphthyridin-2-one] | 31 | 

Compound | Emax at 1 µM (Table 1) [%] | Emax at 1 µM (Table 2) [%]
O=C1CCc2ccc(OCCCCN3CCN(c4cccc5cccc(Cl)c45)CC3)nc2N1 [Example A77, 7-{4-[4-(8-Chloro-naphthalen-1-yl)-piperazin-1-yl]-butoxy}-3,4-dihydro-1H-[1,8]naphthyridin-2-one] | 36 | 
CC(C)COc1ccccc1N1CCN(CCCCOc2ccc3c(n2)NC(=O)CC3)CC1 [Example A27, 7-{4-[4-(2-Isobutoxy-phenyl)-piperazin-1-yl]-butoxy}-3,4-dihydro-1H-[1,8]naphthyridin-2-one] | 38 | 
CC1(C)CC(=O)Nc2nc(OCCCCN3CCN(c4cccc5ccoc45)CC3)ccc21 [Example C5′, 7-[4-(4-Benzofuran-7-yl-piperazin-1-yl)-butoxy]-4,4-dimethyl-3,4-dihydro-1H-[1,8]naphthyridin-2-one] |  | 23
Cc1nc(OCCCCN2CCN(c3cccc4c3OCCO4)CC2)nc2[nH]c(=O)ccc12 [Example G10′, 2-{4-[4-(2,3-Dihydro-benzo[1,4]dioxin-5-yl)-piperazin-1-yl]-butoxy}-4-methyl-8H-pyrido[2,3-d]pyrimidin-7-one] |  | 18
O=C1CCc2cnc(OCCCCN3CCN(c4cccc5c4CCCC5)CC3)cc2N1 [Example I2, 7-{4-[4-(5,6,7,8-Tetrahydro-naphthalen-1-yl)-piperazin-1-yl]-butoxy}-3,4-dihydro-1H-[1,6]naphthyridin-2-one] | 37 | 
O=C1CCc2ccc(OCCCCN3CCN(c4cccc5cc(Cl)ccc45)CC3)nc2N1 [Example A76, 7-{4-[4-(6-Chloro-naphthalen-1-yl)-piperazin-1-yl]-butoxy}-3,4-dihydro-1H-[1,8]naphthyridin-2-one] | 16 | 
O=C1CCc2ccc(OCCCCN3CCN(c4cccc5c4OCCC5)CC3)nc2N1 [Example A4′, 7-[4-(4-Chroman-8-yl-piperazin-1-yl)-butoxy]-3,4-dihydro-1H-[1,8]naphthyridin-2-one] |  | 18
CC1(C)C(=O)Nc2nc(OCCCCN3CCN(c4cccc(Cl)c4Cl)CC3)ccc2C1O (stereo not shown) [Example D15, 7-{4-[4-(2,3-Dichloro-phenyl)-piperazin-1-yl]-butoxy}-4-hydroxy-3,3-dimethyl-3,4-dihydro-1H-[1,8]naphthyridin-2-one] | 25 | 
CCc1cccc(N2CCN(CCCCOc3ccc4c(n3)NC(=O)CC4)CC2)c1 [Example A16, 7-{4-[4-(3-Ethyl-phenyl)-piperazin-1-yl]-butoxy}-3,4-dihydro-1H-[1,8]naphthyridin-2-one] | 16 | 
O=C1CCc2ccc(OCCCCN3CCN(c4cccc5[nH]ccc45)CC3)nc2N1 [Example A25′, 7-{4-[4-(1H-Indol-4-yl)-piperazin-1-yl]-butoxy}-3,4-dihydro-1H-[1,8]naphthyridin-2-one] |  | 36
O=C1CCc2ccc(OCCCCN3CCN(c4cccc5c4OC(F)(F)C(F)(F)O5)CC3)nc2N1 [Example A18′, 7-{4-[4-(2,2,3,3-Tetrafluoro-2,3-dihydro-benzo[1,4]dioxin-5-yl)-piperazin-1-yl]-butoxy}-3,4-dihydro-1H-[1,8]naphthyridin-2-one] |  | 13
O=c1ccc2cnc(OCCCCN3CCN(c4cccc5ccccc45)CC3)cc2[nH]1 [Example I16, 7-[4-(4-Naphthalen-1-yl-piperazin-1-yl)-butoxy]-1H-[1,6]naphthyridin-2-one] | 27 | 
O=c1[nH]c2nc(OCCCCN3CCN(c4cccc(Cl)c4Cl)CC3)ccc2cc1F [Example D9, 7-{4-[4-(2,3-Dichloro-phenyl)-piperazin-1-yl]-butoxy}-3-fluoro-1H-[1,8]naphthyridin-2-one] | 15 | 
Cc1c(F)ccc(N2CCN(CCCCOc3ccc4ccc(=O)[nH]c4n3)CC2)c1Cl [Example B8, 7-{4-[4-(2-Chloro-4-fluoro-3-methyl-phenyl)-piperazin-1-yl]-butoxy}-1H-[1,8]naphthyridin-2-one] | 17 | 
Cc1nc(OCCCCN2CCN(c3cccc4ccc(F)cc34)CC2)nc2c1ccc(=O)n2C [Example H13, 2-{4-[4-(7-Fluoro-naphthalen-1-yl)-piperazin-1-yl]-butoxy}-4,8-dimethyl-8H-pyrido[2,3-d]pyrimidin-7-one] | 36 | 
O=C1CCc2ccc(OCCCCN3CCN(c4cccc5sccc45)CC3)nc2N1 [Example A28′, 7-[4-(4-Benzo[b]thiophen-4-yl-piperazin-1-yl)-butoxy]-3,4-dihydro-1H-[1,8]naphthyridin-2-one] |  | 21
O=c1ccc2cnc(OCCCCN3CCN(c4cccc5ccc(F)cc45)CC3)cc2[nH]1 [Example I17, 7-{4-[4-(7-Fluoro-naphthalen-1-yl)-piperazin-1-yl]-butoxy}-1H-[1,6]naphthyridin-2-one] | 32 | 
CC(=O)c1ccc2c(N3CCN(CCCCOc4ccc5ccc(=O)[nH]c5n4)CC3)cccc2c1 [Example B63, 7-{4-[4-(6-Acetyl-naphthalen-1-yl)-piperazin-1-yl]-butoxy}-1H-[1,8]naphthyridin-2-one] | 18 | 
